Experimental findings from patent US10226453B2, “3-(1H-indol-2-yl)-1H-pyrazolo[4,3-B]pyridines and therapeutic uses thereof” (Samumed, LLC, priority 2015, dated 2019) are described below.

SMILES strings stand for the structures.

Type in all cases: cell-based
For assay [1], the system named is Wnt activity (Sp5-Luc reporter, SW480 colon carcinoma cells). The experiment in a line: Wnt activity screening assay: Sp5-Luc reporter gene in SW480 colon carcinoma cells. The conditions noted are these: Homo sapiens, overnight incubation, 10-point curve from 10 μM. The text has this:
The screening assay for Wnt activity is described as follows. Reporter cell lines can be generated by stably transducing cancer cell lines (e.g., colon cancer) or primary cells (e.g., IEC-6 intestinal cells) with a lentiviral construct that includes a Wnt-responsive promoter driving expression of the firefly luciferase gene.
SW480 colon carcinoma cells were transduced with a lentiviral vector expressing luciferase with a human Sp5 promoter consisting of a sequence of eight TCF/LEF binding sites. SW480 cells stably expressing the Sp5-Luc reporter gene and a hygromycin resistance gene were selected by treatment with 150 μg/mL of hygromycin for 7 days. These stably transduced SW480 cells were expanded in cell culture and used for all further screening activities. Each compound was dissolved in DMSO as a 10 mM stock and used to prepare compound source plates. Serial dilution (1:3, 10-point dose-response curves starting from 10 μM) and compound transfer was performed using the ECHO 550 (Labcyte, Sunnyvale, Calif.) into 384-well white solid bottom assay plates (Greiner Bio-One) with appropriate DMSO backfill for a final DMSO concentration of 0.1%. For Sp5-Luc reporter gene assays, the cells were plated at 4,000 cells/well in 384-well plates with medium containing 1% fetal bovine serum and incubated overnight at 37° C. and 5% CO2. Following incubation, 20 μl of BrightGlo luminescence reagent (Promega) was added to each well of the 384-well assay plates. The plates were placed on an orbital shaker for 2 min and then luminescence was quantified using the Envision (Perkin Elmer) plate reader. Readings were normalized to DMSO only treated cells, and normalized activities were utilized for EC50 calculations using the dose-response log (inhibitor) vs. response-variable slope (four parameters) nonlinear regression feature available in GraphPad Prism 5.0 (or Dotmatics). For EC50 of >10 μM, the percent inhibition at 10 μM is provided.
(In general: Reporter assays use an easily measured gene product as a stand-in for the process of interest.)

In a further assay the test system is IL-6 (THP-1 cells). The experiment in a line: IL-6 inhibition in LPS-stimulated THP-1 human monocyte cells (HTRF). The conditions noted are these: LPS 500 ng/mL, 22 hours, IL6 HTRF. The protocol:
Human monocyte cell line (THP-1 cells; Catalog # TIB-202, ATCC, Manassas, Va.) were cultured in Roswell Park Memorial Institute (RPMI) 1640 Medium (Catalog #21870-100, Buffalo, N.Y.) with 1% L-glutamine, 1% HEPES, 1% Sodium Pyruvate, 2% Sodium Bicarbonate supplemented with 100 units/mL penicillin, 50 μg/mL streptomycin, 2-mercaptoethanol (0.05 mM) [basal medium] and 10% fetal bovine serum (Catalog #16140089, Life Technologies, Carlsbad, Calif.) at 37° C. and 5% CO2.
THP-1 cells were cultured in basal media with 1% FBS for 24 hours before the start of the assay. Each compound was dissolved in DMSO as a 10 mM stock and used to prepare compound source plates. Serial dilution (1:3, 10-point dose-response curves starting from 10 μM) and compound transfer was performed using the ECHO 550 (Labcyte, Sunnyvale, Calif.) into 384-well white low volume assay plates (Greiner Bio-One) with appropriate DMSO backfill for a final DMSO concentration of 0.1%. THP-1 cells were plated at 5000 cells/well in the 384-well plates and incubated at 37° C. for 2 h. 500 ng/mL of LPS was added after 2 hours and cells were incubated for another 22 hours at 37° C. Plates were spun in a centrifuge for 1 minute at […] and a mixture of anti-IL6 XL665, and anti-IL6 Cryptate diluted in reconstitution buffer (Cisbio Inc.) was added to each well. Following incubation for 3 hrs at room temperature, Homogeneous Time-Resolved Fluorescence (HTRF) was measured using the Envision (Perkin Elmer) at 665 nm and […]. The ratio of fluorescence at 665 nm to 620 nm was used as a readout for IL6 quantification. All samples were processed in duplicate. Readings were normalized to DMSO treated cells and normalized activities were utilized for EC50 calculations using the dose-response log (inhibitor) vs. response-variable slope (four parameters) nonlinear regression feature available in GraphPad Prism 5.0 (or Dotmatics). For EC50 of >10 μM, the percent inhibition at 10 μM is provided.
Background: Time-resolved FRET reads energy transfer from a long-lived donor to a nearby acceptor.

The test system of assay [2] is primary human fibroblasts derived from IPF patients (LL29 cells) treated with TGF-β1. The experiment in a line: Inhibition of the fibrotic process: αSMA staining in TGF-β1 treated primary human fibroblasts from IPF patients (LL29 cells). To be noted: Fibroblast, 96 h, TGF-β1 20 ng/mL, 4 days, % αSMA positive cells. The text has this: Representative compounds were screened using primary human fibroblasts (derived from IPF patients) treated with TGF-β1 to determine their ability to inhibit the fibrotic process.
Primary human fibroblasts derived from IPF patients (LL29 cells) [^1Xiaoqiu Liu, et. al., “Fibrotic Lung Fibroblasts Show Blunted Inhibition by cAMP Due to Deficient cAMP Response Element-Binding Protein Phosphorylation”, Journal of Pharmacology and Experimental Therapeutics (2005), 315(2), 678-687; ^2Watts, K. L., et. al., “RhoA signaling modulates cyclin D1 expression in human lung fibroblasts; implications for idiopathic pulmonary fibrosis”, Respiratory Research (2006), 7(1), 88] were obtained from American Type Culture Collection (ATCC) and expanded in F12 medium supplemented with 15% Fetal Bovine Serum and Penicillin/Streptomycin.
Each compound was dissolved in DMSO as a 10 mM stock and used to prepare compound source plates. Serial dilution (1:2, 11-point dose-response curves from 10 μM to 1.87 nM) and compound transfer was performed using the ECHO 550 (Labcyte, Sunnyvale, Calif.) into 384-well clear bottom assay plates (Greiner Bio-One) with appropriate DMSO backfill for a final DMSO concentration of 0.1%. LL29 cells are plated at 1,500 cells/well in 80 μL/well F12 medium supplemented with 1% Fetal Bovine Serum. One hour after addition of the cells, TGF-β1 (Peprotech; 20 ng/mL) was added to the plates to induce fibrosis (ref. 1 and 2 above). Wells treated with TGF-β1 and containing DMSO were used as controls. Cells were incubated at 37° C. and 5% CO2 for 4 days. Following incubation for 4 days, SYTOX green nucleic acid stain (Life Technologies [Thermo Fisher Scientific]) was added to the wells at a final concentration of 1 μM and incubated at room temperature for 30 min. Cells were then fixed using 4% formaldehyde (Electron Microscopy Sciences), washed 3 times with PBS followed by blocking and permeabilization using 3% Bovine Serum Albumin (BSA; Sigma) and 0.3% Triton X-100 (Sigma) in PBS. Cells were then stained with antibody specific to α-smooth muscle actin (αSMA; Abcam) (ref. 1 and 2 above) in 3% Bovine Serum Albumin (BSA; Sigma) and 0.3% Triton X-100 (Sigma) in PBS, and incubated overnight at 4° C. Cells were then washed 3 times with PBS, followed by incubation with Alexa Flor-647 conjugated secondary antibody (Life Technologies [Thermo Fisher Scientific]) and DAPI at room temperature for 1 hour. Cells were then washed 3 times with PBS and plates were sealed for imaging. αSMA staining was imaged by excitation at 630 nm and emission at 665 nm and quantified using the Compartmental Analysis program on the CellInsight CX5 (Thermo Scientific). Dead or apoptotic cells were excluded from analysis based on positive SYTOX green staining. % of total cells positive for αSMA were counted in each well and normalized to the average of 11 wells treated with TGF-β1 on the same plate using Dotmatics' Studies Software. The normalized averages (fold change over untreated) of 3 replicate wells for each compound concentration were used to create dose-responses curves and EC50 values were calculated using non-linear regression curve fit in the Dotmatics' Studies Software. For EC50 of >10 μM, the percent inhibition at 10 μM is provided.

Another assay has as its system SW480 colon cancer cells. Nature of the assay: Cell viability assay (CellTiter-Blue), SW480 colon cancer cells. To be noted: Homo sapiens, 96 h, four days, CellTiter-Blue. The protocol: Representative compounds were screened using the following assay procedure to assess the effect on cell viability as described below.
Each compound was dissolved in DMSO as a 10 mM stock and used to prepare compound source plates. Serial dilution (1:3, 8-point dose-response curves from 10 μM to 0.0045 μM) and compound transfer was performed using the ECHO 550 (Labcyte, Sunnyvale, Calif.) into 96-well clear bottom, black-walled plates (Corning—Costar).
Approximately 2×10^3 SW480 colon cancer cells were seeded into each well and allowed to incubate in the presence or absence of compound for four days at 37° C./5% CO2. Eight replicates of DMSO-treated cells served as controls and cells treated with compound were performed in duplicate.
After incubation, 20 μL of CellTiter-Blue (Promega) was added to each well allowed to incubate for approximately 3 hours. This reagent was a buffered solution which contains resazurin, metabolically active cells were able to reduce rezarurin (blue) into resorufin (pink) which was highly fluorescent. This measured fluorescence was used as a readout for cell viability.
After incubation, the plates were read at Ex 560 nm Em 590 nm (Cytation 3, BioTek). Dose-response curves were generated and EC50 concentration values were calculated using non-linear regression curve fit in the GraphPad Prism (San Diego, Calif.) or Dotmatics' Studies Software (Bishops Stortford, UK). For EC50 of >10 μM, the percent inhibition at 10 μM is provided.

A word on the EC50: it is the concentration at which the effect is half-maximal.

Take `CS(=O)(=O)NCc1cc(F)cc(-c2cccc3[nH]c(-c4n[nH]c5ccc(-c6cncc(CN7CCC(F)(F)C7)c6)nc45)cc23)c1` [Compound 502, N-(3-(2-(5-(5-((3,3-Difluoropyrrolidin-1-yl)methyl)pyridin-3-yl)-1H-pyrazolo[4,3-b]pyridin-3-yl)-1H-indol-4-yl)-5-fluorobenzyl)methanesulfonamide]: the EC50 in assay [1] turned out to be 196 nM; in the assay with IL-6 (THP-1 cells) it was 298 nM; in assay [2], 148 nM; in the assay on SW480 colon cancer cells it was 693 nM.

Turning to `O=C(Nc1cncc(-c2ccc3[nH]nc(-c4cc5c(-c6cccc(F)c6)cccc5[nH]4)c3n2)c1)C1CCCCC1` [Compound 23, N-(5-(3-(4-(3-Fluorophenyl)-1H-indol-2-yl)-1H-pyrazolo[4,3-b]pyridin-5-yl)pyridin-3-yl)cyclohexanecarboxamide], the concentration for a half-maximal effect (EC50) is 1630 nM in assay [1], 1010 nM with IL-6 (THP-1 cells), 1280 nM in assay [2] and 6570 nM in the assay on SW480 colon cancer cells.

In the case of `Cc1ccncc1-c1ccc2[nH]nc(-c3cc4ccccc4[nH]3)c2n1` [Compound 257, 3-(1H-Indol-2-yl)-5-(4-methylpyridin-3-yl)-1H-pyrazolo[4,3-b]pyridine], the EC50 is 3690 nM in assay [1], 17 nM with IL-6 (THP-1 cells), 4640 nM in assay [2] and 8060 nM in the assay with SW480 colon cancer cells.

`CN(C)Cc1cncc(-c2ccc3[nH]nc(-c4cc5c(N6CCCCC6)cccc5[nH]4)c3n2)c1` [Compound 181, N,N-Dimethyl-1-(5-(3-(4-(piperidin-1-yl)-1H-indol-2-yl)-1H-pyrazolo[4,3-b]pyridin-5-yl)pyridin-3-yl)methanamine]: the EC50 in assay [1] is 899 nM; with IL-6 (THP-1 cells), 1520 nM; in assay [2] it was 870 nM; with SW480 colon cancer cells it was 3150 nM.

In the case of `CC(C)(C)CC(=O)Nc1cncc(-c2ccc3[nH]nc(-c4cc5c(-c6cc(F)cc(CNS(C)(=O)=O)c6)cccc5[nH]4)c3n2)c1` [Compound 492, N-(5-(3-(4-(3-Fluoro-5-(methylsulfonamidomethyl)phenyl)-1H-indol-2-yl)-1H-pyrazolo[4,3-b]pyridin-5-yl)pyridin-3-yl)-3,3-dimethylbutanamide], the EC50 in assay [1] stood at 292 nM; in the assay with IL-6 (THP-1 cells) it was 261 nM; in assay [2] it was 345 nM; in the assay with SW480 colon cancer cells, 1060 nM.

As for `CS(=O)(=O)NCc1cc(F)cc(-c2cccc3[nH]c(-c4n[nH]c5ccc(-c6cncc(NC(=O)C7CCCC7)c6)nc45)cc23)c1` [Compound 498, N-(5-(3-(4-(3-Fluoro-5-(methylsulfonamidomethyl)phenyl)-1H-indol-2-yl)-1H-pyrazolo[4,3-b]pyridin-5-yl)pyridin-3-yl)cyclopentanecarboxamide], the EC50 in assay [1] was 306 nM; with IL-6 (THP-1 cells), 106 nM; in assay [2] it was 403 nM; with SW480 colon cancer cells it was 827 nM.

For `CS(=O)(=O)NCc1cc(F)cc(-c2cccc3[nH]c(-c4n[nH]c5ccc(-c6cncc(OCc7ccccc7)c6)nc45)cc23)c1` [Compound 802, N-(3-(2-(5-(5-(Benzyloxy)pyridin-3-yl)-1H-pyrazolo[4,3-b]pyridin-3-yl)-1H-indol-4-yl)-5-fluorobenzyl)methanesulfonamide], the EC50 in assay [1] stood at 433 nM; in the assay with IL-6 (THP-1 cells), 473 nM; in assay [2] it was 276 nM; in the assay on SW480 colon cancer cells it was 1190 nM.

On to `CN(C)Cc1cncc(-c2ccc3[nH]nc(-c4cc5c(-c6cccs6)cccc5[nH]4)c3n2)c1` [Compound 349, N,N-Dimethyl-1-(5-(3-(4-(thiophen-2-yl)-1H-indol-2-yl)-1H-pyrazolo[4,3-b]pyridin-5-yl)pyridin-3-yl)methanamine], for which the EC50 amounted to 8280 nM in assay [1], 137 nM in the assay on IL-6 (THP-1 cells), 1270 nM in assay [2] and 2840 nM with SW480 colon cancer cells.

For `c1cc(N2CCCCC2)c2cc(-c3n[nH]c4ccc(-c5cncnc5)nc34)[nH]c2c1` [Compound 195, 3-(4-(Piperidin-1-yl)-1H-indol-2-yl)-5-(pyrimidin-5-yl)-1H-pyrazolo[4,3-b] pyridine], the EC50 in assay [1] was determined as 1180 nM; in the assay with IL-6 (THP-1 cells), 31 nM; in assay [2], 1280 nM; in the assay with SW480 colon cancer cells, 5590 nM.
